Measured values from patent US7455996B2, “Soybean raffinose synthase and a method for producing raffinose” (priority 1996, dated 2008).

Key:
[1] = test system: raffinose synthase; assay: raffinose synthase activity with enzyme inhibitors or metal ions added; assay type: biochemical, cucumber; settings: final concentration of 1 mM; for Remaining activity (%): with respect to activity when neither inhibitor nor metal ion was added
Description: (§1) The activity of the raffinose synthase was measured by quantitatively determining raffinose produced by the raffinose synthesis reaction by using HPLC (high-performance liquid chromatography). HPLC was performed by using Sugar Analysis System DX500 (CarboPac PA1column, pulsed amperometry detector (produced by DIONEX)).
(§2) For the raffinose synthesis reaction, to a reaction solution prepared to have a composition having the following final concentrations, 10 to 50 μl of a raffinose synthase solution was added to give a volume of 100 μl followed by performing the reaction at 32° C. for 60 minutes.
(§3) After performing the reaction as described above, the reaction was stopped by adding to the reaction solution, ethanol in a volume four times the volume of the reaction solution and heating the solution at 95° C. for 30 seconds. The obtained solution was centrifuged to obtain a supernatant and the supernatant was then dried up under a reduced pressure. After that, an obtained residue was dissolved in distilled water. Raffinose in the reaction product was quantitatively determined by using the sugar analysis system to estimate the raffinose synthase activity.
Various enzyme inhibitors or metal ions were added to the reaction solution of the purified raffinose synthase to give a final concentration of 1 mM respectively, and the raffinose synthase activity was measured in the same manner as described above.

[2] = test system: raffinose synthase; assay: inhibition of raffinose synthase activity by myo-inositol; assay type: biochemical, cucumber; settings: myo-inositol added at various concentrations (FIG. 5)
Description: as §1, §2, §3
Investigation was made for inhibition by myo-inositol as the reaction product of the raffinose synthesis reaction. To the reaction solution, myo-inositol was added at various concentrations, and the raffinose synthase activity was measured. […]

[3] = raffinose synthase activity of purification fractions (HPLC determination of raffinose); assay type: biochemical, cucumber; settings: purified active fraction after hydroxyapatite rechromatography
Description: as §1, §2, §3
The amount of protein contained in the active fraction was about 200 μg. The total activity was 5700 nmol/hour, and the specific activity per protein was about 28 μmol/hour/mg. […]

[4] = optimum reaction temperature of raffinose synthase; assay type: biochemical, cucumber; settings: measured at 28 to 52° C.
Description: as §1, §2, §3
The raffinose synthase activity was measured under various temperature conditions (28° C., 32° C., 36° C., 40° C., 44° C., 48° C., and 52° C.) in accordance with the method for measuring the raffinose synthase activity described above. […]

[5] = optimum reaction pH of raffinose synthase; assay type: biochemical, cucumber; settings: pH 4 to 11, various buffers
Description: as §1, §2, §3
The raffinose synthase activity was measured under various pH conditions (pH 4 to 11) in accordance with the method for measuring the raffinose synthase activity described above. […]

[6] = stable pH of raffinose synthase; assay type: physicochemical, cucumber; settings: fraction from anion exchange chromatography (2); incubated 4 hours at 4° C.
Description: The raffinose synthase fraction obtained by the anion exchange chromatography (2) described above was incubated for 4 hours at 4° C. in 50 mM Bis-Tris-HCl buffer (pH 5 to 8.0, containing 0.5 mM DTT) or 20 mM Tris-HCl buffer (pH 7 to 8.0, containing 0.5 mM DTT), and then the raffinose synthase activity was measured. […] The raffinose synthase activity was confirmed after the incubation under any of the incubation conditions. Especially, the enzyme was stable in a range of pH 5 to 7.5.

[7] = stable temperature of raffinose synthase; assay type: physicochemical, cucumber; settings: fraction from anion exchange chromatography (2); 60 minutes at 28° C. to 40° C., pH 7
Description: The raffinose synthase fraction obtained by the anion exchange chromatography (2) described above was incubated in 20 mM Tris-HCl buffer (pH 7, containing 0.5 mM DTT) for 60 minutes at 28° C., 32° C., 37° C., or 40° C., and then the raffinose synthase activity was measured.

Molecule	inhibiting effect on the enzyme activity [1]	Remaining activity (%) [1] [%]	further results
[Ca+2].[Cl-].[Cl-] [CaCl2]	scarcely observed	115	
[Cl][Cu][Cl] [CuCl2]	scarcely observed	101	
NC(=O)CI [Iodoacetoamide, Iodoacetamide]	remarkably inhibited	0	
[Cl-].[Cl-].[Mg+2] [MgCl2]	scarcely observed	96	
CCN1C(=O)C=CC1=O [N-ethylmaleimide]	remarkably inhibited	40	
[Cl][Mn][Cl] [MnCl2]	exhibited the inhibiting effect	32	
[Cl-].[Cl-].[Zn+2] [ZnCl2]	exhibited the inhibiting effect	42	
O[C@H]1[C@H](O)[C@@H](O)[C@H](O)[C@@H](O)[C@H]1O [myo-inositol]			inhibition of the enzyme activity by myo-inositol [2]: inhibited
[Cl][Ni][Cl] [NiCl2]	exhibited the inhibiting effect	68	
raffinose synthase: raffinose synthase purified from cucumber leaf vein tissues, amino acid sequence SEQ ID NO: 5 (protein, listed as Cucumis sativus) MAPSFKNGGSNVVSFDGLNDMSSPFAIDGSDFTVNGHSFLSDVPENIVASPSPYTSIDKSPVSVGCFVGFDASEPDSRHVVSIGKLKDIRFMSIFRFKVWWTTHWVGRNGGDLESETQIVILEKSDSGRPYVFLLPIVEGPFRTSIQPGDDDFVDVCVESGSSKVVDASFRSMLYLHAGDDPFALVKEAMKIVRTHLGTFRLLEEKTPPGIVDKFGWCTWDAFYLTVHPQGVIEGVRHLVDGGCPPGLVLIDDGWQSIGHDSDPITKEGMNQTVAGEQMPCRLLKFQENYKFRDYVNPKATGPRAGQKGMKAFIDELKGEFKTVEHVYVWHALCGYWGGLRPQVPGLPEARVIQPVLSPGLQMTMEDLAVDKIVLHKVGLVPPEKAEEMYEGLHAHLEKVGIDGVKIDVIHLLEMLCEDYGGRVDLAKAYYKAMTKSINKHFKGNGVIASMEHCNDFMFLGTEAISLGRVGDDFWCTDPSGDPNGTFWLQGCHMVHCANDSLWMGNFIHPDWDMFQSTHPCAAFHAASRAISGGPIYVSDSVGKHNFDLLKKLVLPDGSILRSEYYALPTRDCLFEDPLHNGETMLKIWNLNKFTGVIGAFNCQGGGWCRETRRNQCFSQYSKRVTSKTNPKDIEWHSGENPISIEGVKTFALYLYQAKKLILSKPSQDLDIALDPFEFELITVSPVTKLIQTSLHFAPIGLVNMLNTSGAIQSVDYDDDLSSVEIGVKGCGEMRVFASKKPRACRIDGEDVGFKYDQDQMVVVQVPWPIDSSSGGISVIEYLF			specific activity per protein [3]: about 28 μmol/hour/mg; optimum reaction temperature [4]: 35 to 40 °C; temperature range in which activity was exhibited [4]: 25 to 42 °C; optimum reaction pH [5]: 6 to 8 pH; pH range in which activity was exhibited [5]: 5 to 10 pH; stable pH range [6]: 5 to 7.5 pH; activity after incubation relative to non-incubated control [7]: 80% to 100
